Data from the supplement of paper PMC10307832.

Tests used:
Assay in all cases: relative viability (nuclei count vs DMSO), 5 days (fraction); higher = more cells survive
[1] = compound: CN(C)CC1=CC(=CC=C1)N=C(C2=CC=CC=C2)C3=C(NC4=C3C=CC(=C4)C(=O)N(C)C)O
Method in brief: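 Five library-drug doses, separated by factors of √10, were pinned into 1536-well plates holding lung cancer cell lines after an overnight stay at 37 °C. Cells were fixed, permeabilised and Hoechst-stained in one step after 5 days without medium change, then imaged at 4×. Viability compares treated-well with vehicle-well nuclei, counted in MetaXpress, as a median across plates. Passing plates had control CV below 25% and at least one doubling.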

[2] = compound: CN(C)CC1=CC(=CC=C1)N=C(C2=CC=CC=C2)C3=C(NC4=C3C=CC(=C4)C(=O)N(C)C)O + CC(C)C[C@H](NC(=O)[C@H](Cc1ccccc1)NC(=O)c1cnccn1)B(O)O [Bortezomib] (partner 0.002 µM)
Method in brief: (§1)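 Dosing by pin tool came one day after lung cancer cell lines were seeded in 1536-well plates, using either one drug or a fixed anchor-drug dose plus five library-drug doses (not always all listed) in √10 steps. After 5 days, nuclei were counted on 4× images. Relative viability is treated-well nuclei count divided by vehicle-well nuclei count, and values are medians of duplicate plates.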

[3] = compound: CN(C)CC1=CC(=CC=C1)N=C(C2=CC=CC=C2)C3=C(NC4=C3C=CC(=C4)C(=O)N(C)C)O + O=C(c1cc(Cc2n[nH]c(=O)c3ccccc23)ccc1F)N1CCN(C(=O)C2CC2)CC1 [Olaparib] (partner 8 µM)
Method in brief: as §1

[4] = compound: CN(C)CC1=CC(=CC=C1)N=C(C2=CC=CC=C2)C3=C(NC4=C3C=CC(=C4)C(=O)N(C)C)O + CS(=O)(=O)CCNCc1ccc(-c2ccc3ncnc(Nc4ccc(OCc5cccc(F)c5)c(Cl)c4)c3c2)o1 [Lapatinib] (partner 2 µM)
Method in brief: as §1

[5] = compound: CN(C)CC1=CC(=CC=C1)N=C(C2=CC=CC=C2)C3=C(NC4=C3C=CC(=C4)C(=O)N(C)C)O + COc1cc2c(Oc3ccc(NC(=O)C4(C(=O)Nc5ccc(F)cc5)CC4)cc3F)ccnc2cc1OCCCN1CCOCC1 [Foretinib] (partner 0.25 µM)
Method in brief: as §1

[6] = compound: CN(C)CC1=CC(=CC=C1)N=C(C2=CC=CC=C2)C3=C(NC4=C3C=CC(=C4)C(=O)N(C)C)O + C[C@@H](Oc1cc(-c2cnn(C3CCNCC3)c2)cnc1N)c1c(Cl)ccc(F)c1Cl [Crizotinib] (partner 1 µM)
Method in brief: as §1

[7] = compound: CN(C)CC1=CC(=CC=C1)N=C(C2=CC=CC=C2)C3=C(NC4=C3C=CC(=C4)C(=O)N(C)C)O + CC1(C)CCC(c2ccc(Cl)cc2)=C(CN2CCN(c3ccc(C(=O)NS(=O)(=O)c4ccc(N[C@H](CCN5CCOCC5)CSc5ccccc5)c(S(=O)(=O)C(F)(F)F)c4)cc3)CC2)C1 [Navitoclax] (partner 0.5 µM)
Method in brief: as §1

[8] = compound: CN(C)CC1=CC(=CC=C1)N=C(C2=CC=CC=C2)C3=C(NC4=C3C=CC(=C4)C(=O)N(C)C)O + C[C@]1(O)C[C@@H](c2nc(-c3ccc4ccc(-c5ccccc5)nc4c3)c3c(N)nccn32)C1 [Linsitinib] (partner 1 µM)
Method in brief: as §1

[9] = compound: CN(C)CC1=CC(=CC=C1)N=C(C2=CC=CC=C2)C3=C(NC4=C3C=CC(=C4)C(=O)N(C)C)O + Cc1nc(NC(=O)N2CCC[C@H]2C(N)=O)sc1-c1ccnc(C(C)(C)C(F)(F)F)c1 [Alpelisib] (partner 2 µM)
Method in brief: as §1

[10] = compound: CN(C)CC1=CC(=CC=C1)N=C(C2=CC=CC=C2)C3=C(NC4=C3C=CC(=C4)C(=O)N(C)C)O + CS(=O)(=O)N1CCN(Cc2cc3nc(-c4cccc5[nH]ncc45)nc(N4CCOCC4)c3s2)CC1 [Pictilisib] (partner 1 µM)
Method in brief: as §1

EBC-1 was tested, and the relative viability ([1]; 0.08 µM) was 1.02, the relative viability ([1]; 0.253 µM) was 0.958 and the relative viability ([1]; 0.8 µM) was 1.08. It also gave a relative viability ([1]; 2.53 µM) of 0.985, a relative viability ([1]; 8 µM) of 1.1 and a relative viability ([2]; first compound 0.08 µM) of 0.551. The relative viability ([2]; first compound 0.253 µM) was 0.632, the relative viability ([2]; first compound 0.8 µM) was 0.605 and the relative viability ([2]; first compound 2.53 µM) was 0.737. It also gave a relative viability ([2]; first compound 8 µM) of 0.598, a relative viability ([3]; first compound 0.08 µM) of 0.785 and a relative viability ([3]; first compound 0.253 µM) of 0.732. The relative viability ([3]; first compound 0.8 µM) was 0.772, the relative viability ([3]; first compound 2.53 µM) was 0.744 and the relative viability ([3]; first compound 8 µM) was 0.845. The relative viability ([4]; first compound 0.08 µM) was 0.223, the relative viability ([4]; first compound 0.253 µM) was 0.248 and the relative viability ([4]; first compound 0.8 µM) was 0.227. For the same cell line, the relative viability ([4]; first compound 2.53 µM) was 0.198, the relative viability ([4]; first compound 8 µM) was 0.225 and the relative viability ([5]; first compound 0.08 µM) was 0.0943. For the same cell line, the relative viability ([5]; first compound 0.253 µM) was 0.112, the relative viability ([5]; first compound 0.8 µM) was 0.0994 and the relative viability ([5]; first compound 2.53 µM) was 0.103. For the same cell line, the relative viability ([5]; first compound 8 µM) was 0.107, the relative viability ([6]; first compound 0.08 µM) was 0.186 and the relative viability ([6]; first compound 0.253 µM) was 0.212. For the same cell line, the relative viability ([6]; first compound 0.8 µM) was 0.21, the relative viability ([6]; first compound 2.53 µM) was 0.184 and the relative viability ([6]; first compound 8 µM) was 0.196. The relative viability ([7]; first compound 0.08 µM) was 0.459, the relative viability ([7]; first compound 0.253 µM) was 0.411 and the relative viability ([7]; first compound 0.8 µM) was 0.539. The relative viability ([7]; first compound 2.53 µM) was 0.522, the relative viability ([7]; first compound 8 µM) was 0.518 and the relative viability ([8]; first compound 0.08 µM) was 1.02. For the same cell line, the relative viability ([8]; first compound 0.253 µM) was 0.964, the relative viability ([8]; first compound 0.8 µM) was 1.05 and the relative viability ([8]; first compound 2.53 µM) was 1. It also gave a relative viability ([8]; first compound 8 µM) of 1.08, a relative viability ([9]; first compound 0.08 µM) of 0.958 and a relative viability ([9]; first compound 0.253 µM) of 0.891. It also gave a relative viability ([9]; first compound 0.8 µM) of 1.06, a relative viability ([9]; first compound 2.53 µM) of 0.917 and a relative viability ([9]; first compound 8 µM) of 0.816. It also gave a relative viability ([10]; first compound 0.08 µM) of 0.441, a relative viability ([10]; first compound 0.253 µM) of 0.456 and a relative viability ([10]; first compound 0.8 µM) of 0.416. For the same cell line, the relative viability ([10]; first compound 2.53 µM) was 0.365 and the relative viability ([10]; first compound 8 µM) was 0.318.
